Assay results reported in patent US5593982A, “Cyclopentanperhydrophenanthren-17β-(3-furyl)-3-derivatives and pharmaceutical compositions comprising same for the treatment of cardiovascular disorders” (Sigma-Tau Industrie Farmaceutiche Riunite S.p.A., priority 1992, dated 1997).
Structures can show the parent of a compound that is named as a salt. Where two headings read alike, the source gives them in different places.

Legend:
hypertensive MHS rats = test: systolic blood pressure and heart rate in hypertensive MHS rats (indirect tail-cuff method); assay type: in vivo, rat (MHS); conditions: 20 mg/Kg/os daily for ten days in METHOCEL 0.5% w/v, 7 rats; for SBP (systolic blood pressure): controls 171 ± 4.5; for HR (heart rate): controls 384 ± 11.0
Description: The ability of these compounds to lower blood pressure in adult hypertensive MHS rats was tested by the following method: systolic blood pressure (SBP) and heart rate (HR) were measured by an indirect tail-cuff method in three-month old hypertensive MHS rats before beginning treatment (basal values). The rats were then subdivided in two groups of 7 animals each, one receiving the compound and the other, the control group, receiving only the vehicle. The compound, suspended in METHOCEL® 0.5% (w/v), for ten days, was administered daily by mouth. SBP and HR were measured daily 6 and 24 hours after the treatment. When ten-day treatment washout had been under way for at least two days, whether the treatment maintains SBP low or re-establish the basal values was verified. The affinity and the inhibitory activity of some ethers and of the reference compound (II-a) in the two tests are shown in the following table: […]

[1] = target: T1, purified Na^+,K^+ -ATPase (Canis lupus familiaris, UniProt P50997); test: inhibition of the activity of the purified Na+,K+-ATPase measured as % of hydrolysis of 32P-ATP; assay type: biochemical
T1 construct: from tissue; mammalian kidney outer medulla by the cited Jorgensen 1974 method (own knowledge)
Source text: (§1) To test the affinity for the receptor site of the Na^+,K^+ -ATPase and the agonist or antagonist activity on the enzyme, the following tests were used: a) displacement of the specific ^3 H-ouabain binding from the Na^+,K^+ -ATPase receptor purified according to Jorghensen (Jorghensen P., BBA, 1974, 356, 36) and Erdmann (Erdmann E. et al., Arzneim. Forsh., 1984, 34, 1314); b) inhibition of the activity of the purified Na^+,K^+ -ATPase measured as % of hydrolysis of ^32 P-ATP in presence and in absence of the tested compound (Mall F. et al., Biochem. Pharmacol., 1984, 33, 47).

[2] = target: T2, Na^+,K^+ -ATPase receptor (Canis lupus familiaris, UniProt P50997); test: displacement of the specific 3H-ouabain binding from the purified Na+,K+-ATPase receptor
T2 construct: from tissue; mammalian kidney outer medulla by the cited Jorgensen 1974 method (own knowledge)
Source text: as §1

[3] = hydrolysis of 32P-ATP, purified Na+,K+-ATPase, read-out: Inhibitory Activity log IC50 (converted)
[4] = displacement of specific 3H-ouabain binding, purified Na+,K+-ATPase, read-out: Binding 3H-Ouab. Displacement log IC50 (converted)

| SMILES | SBP (systolic blood pressure) (hypertensive MHS rats) [mm Hg] | HR (heart rate) (hypertensive MHS rats) [beats/min.] | IC50 [1] [nM] | IC50 [2] [nM] | IC50 [1, 3] [nM] | IC50 [2, 4] [nM] |
| --- | --- | --- | --- | --- | --- | --- |
| C[C@]12CC[C@H](OCCSCCN3CCCC3)C[C@H]1CC[C@@H]1[C@@H]2CC[C@]2(C)[C@@H](c3ccoc3)CC[C@]12O [Comp. I-ai, 3β-(2-(2-(1-Pyrrolidinyl)ethylthio)ethoxy)-17β-(3-furyl)-5β-androstan-14β-ol] | 160 ± 4.7 | 390 ± 8.9 | 631 | 200 |  |  |
| C[C@]12CC[C@H](SCCN3CCCC3)C[C@H]1CC[C@@H]1[C@@H]2CC[C@]2(C)[C@@H](c3ccoc3)CC[C@]12O [Comp. I-bw, 3β-(2-(1-Pyrrolidinyl)ethylthio)-17β-(3-furyl)-5β-androstan-14β-ol] | 157 ± 4.3 | 392 ± 10.0 |  |  | 3980 | 794 |
| C[C@]12CC[C@H](OCCCN)C[C@H]1CC[C@@H]1[C@@H]2CC[C@]2(C)[C@@H](c3ccoc3)CC[C@]12O [Comp. I-ab, 3β-(3-Aminopropoxy)-17β-(3-furyl)-5β-androstan-14β-ol] | 157 ± 4.9 | 371 ± 10.0 |  | 126 | 1260 |  |
| C[C@]12CC[C@H](OCCNC(=N)N)C[C@H]1CC[C@@H]1[C@@H]2CC[C@]2(C)[C@@H](c3ccoc3)CC[C@]12O [Comp. I-al, 3β-(2-Guanidinoethoxy)-17β-(3-furyl)-5β-androstan-14β-ol nitrate] | 159 ± 5.0 | 393 ± 9.0 | 1580 | 126 |  |  |
| C[C@]12CC[C@H](SCCOCCN3CCCC3)C[C@H]1CC[C@@H]1[C@@H]2CC[C@]2(C)[C@@H](c3ccoc3)CC[C@]12O [Comp. I-by, 3β-(2-(2-(1-Pyrrolidinyl)ethoxy)ethylthio)-17β-(3-furyl)-5β-androstan-14β-ol] | 154 ± 6.3 | 395 ± 8.7 | 1000 | 158 |  |  |
| C[C@]12CC[C@H](OCCCN3CCCC3)C[C@H]1CC[C@@H]1[C@@H]2CC[C@]2(C)[C@@H](c3ccoc3)CC[C@]12O [Comp. I-ae] | 154 ± 6.3 | 395 ± 8.7 | 794 | 126 |  |  |
| C[C@]12CC[C@H](SCCN3CCOCC3)C[C@H]1CC[C@@H]1[C@@H]2CC[C@]2(C)[C@@H](c3ccoc3)CC[C@]12O [Comp. I-bu, 3β-(2-(4-Morpholinoethylthio)-17β-(3-furyl)-5β-androstan-14β-ol oxalate] |  |  | 631 | 316 |  |  |
| C[C@]12CC[C@H](SCCN)C[C@H]1CC[C@@H]1[C@@H]2CC[C@]2(C)[C@@H](c3ccoc3)CC[C@]12O [Comp. I-bv, 3β-(2-Aminoethylthio)-17β-(3-furyl)-5β-androstan-14β-oloxalate] | 161 ± 4.2 | 384 ± 6.7 | 2000 |  |  | 501 |
| C[C@]12CC[C@H](OCCCNC(=N)N)C[C@H]1CC[C@@H]1[C@@H]2CC[C@]2(C)[C@@H](c3ccoc3)CC[C@]12O [Comp. I-am, 3β-(3-Guanidinopropxy)-17β-(3-furyl)-5β-androstan-14β-ol nitrate] |  |  | 3160 | 200 |  |  |
| C[C@]12CC[C@H](OCCOCC(N)CN)C[C@H]1CC[C@@H]1[C@@H]2CC[C@]2(C)[C@@H](c3ccoc3)CC[C@]12O (stereo partly drawn) [Comp. I-cz, 3β-(2-(2,3-Diaminopropoxy)ethoxy)-17β-(3-furyl)-5β-androstan-14β-ol] |  |  | 2000 | 398 |  |  |
| C[C@]12CC[C@H](OCCN3CCCC3)CC1=CC[C@@H]1[C@@H]2CC[C@]2(C)[C@@H](c3ccoc3)CC[C@]12O [Comp. I-aw, 3β-(2-(1-Pyrrolidinyl)ethoxy)-17β-(3-furyl)-androst-5-en--14β-ol] |  |  |  | 1580 | 6310 |  |
| C[C@]12CC[C@H](OCCN)C[C@H]1CC[C@@H]1[C@@H]2CC[C@]2(C)[C@@H](c3ccoc3)CC[C@]12O [Comp. I-aa, 3β-(2-Aminoethoxy)-17β-(3-furyl)-5β-androstan-14β-ol] |  |  | 501 | 158 |  |  |
| C[C@]12CC[C@H](OCCN3CCCC3)C[C@@H]1CC[C@@H]1[C@@H]2CC[C@]2(C)[C@@H](c3ccoc3)CC[C@]12O [Comp. I-ay, 3β-(2-(1-Pyrrolidinyl)ethoxy)-17β-(3-furyl)-5α-androstan-14β-ol] |  |  | 3160 | 398 |  |  |
| C[C@]12CC[C@H](OCCCCN)C[C@H]1CC[C@@H]1[C@@H]2CC[C@]2(C)[C@@H](c3ccoc3)CC[C@]12O [Comp. I-ac, 3β-(4-Aminobutoxy)-17β-(3-furyl)-5β-androstan-14β-ol] |  |  | 2000 | 398 |  |  |
| C[C@]12CC[C@H](OCCN3CCCC3)C=C1CC[C@@H]1[C@@H]2CC[C@]2(C)[C@@H](c3ccoc3)CC[C@]12O [Comp. I-au, 3β-(2-(1-Pyrrolidinyl)ethoxy)-17β-(3-furyl)-androst-4-en-14β-ol oxalate] |  |  | 1580 | 316 |  |  |
| C[C@]12CC[C@H](O)C[C@H]1CC[C@@H]1[C@@H]2CC[C@]2(C)[C@@H](c3ccoc3)CC[C@]12O [Comp. II-a, 17β-(3-furyl)-5β-androstane-3β,14β-diol, reference compound] | 175 ± 4.1 | 382 ± 9.0 |  |  |  |  |
| C[C@]12CC[C@H](SCCCN3CCNCC3)C[C@H]1CC[C@@H]1[C@@H]2CC[C@]2(C)[C@@H](c3ccoc3)CC[C@]12O [Comp. I-bx, 3β-(3-(1-Piperazinyl)propylthio)-17β-(3-furyl)-5β-androstan-14β-ol dioxalate] |  |  | 1000 | 501 |  |  |
| C[C@]12CC[C@H](OCCNCCCN3CCCC3)C[C@H]1CC[C@@H]1[C@@H]2CC[C@]2(C)[C@@H](c3ccoc3)CC[C@]12O [Comp. I-db, 3β-(2-(3-(1-Pyrrolidinyl)propylamino)ethoxy)-17β-(3-furyl)-5β-androstan-14β-ol] |  |  | 1580 | 200 |  |  |
| C[C@]12CC[C@H](OCCOCCCN)C[C@H]1CC[C@@H]1[C@@H]2CC[C@]2(C)[C@@H](c3ccoc3)CC[C@]12O [Comp. I-cx, 3β-(2-(3-Aminopropoxy)ethoxy)-17β-(3-furyl)-5β-androstan, 14β-ol] |  |  | 1580 | 200 |  |  |
| C[C@]12CC[C@H](OCC(N)CN)C[C@H]1CC[C@@H]1[C@@H]2CC[C@]2(C)[C@@H](c3ccoc3)CC[C@]12O (stereo partly drawn) [Comp. I-ao, 3β-(2,3-Diaminopropoxy)-17β-(3-furyl)-5β-androstan-14β-ol] |  |  | 1580 | 316 |  |  |
| C[C@]12CC[C@H](OCCOCC(O)CN)C[C@H]1CC[C@@H]1[C@@H]2CC[C@]2(C)[C@@H](c3ccoc3)CC[C@]12O (stereo partly drawn) [Comp. I-cy, 3β-(2-(3-Amino-2-hydroxypropoxy)ethoxy)-17β-(3-furyl)-5β-androstan-14β-ol] |  |  | 1580 | 398 |  |  |
| C[C@]12CC[C@H](OCCN3CCCC3)C[C@H]1CC[C@@H]1[C@@H]2CC[C@]2(C)[C@@H](c3ccoc3)C[C@H]3O[C@]132 [Comp. I-ba, 3β-(2-(1-Pyrrolidinyl)ethoxy)-14β,15β-epoxy-17β-(3-furyl)-5β-androstane oxalate] |  |  | 1580 | 631 |  |  |
| C[C@]12CC[C@H](OCC(CN3CCCC3)N3CCCC3)C[C@H]1CC[C@@H]1[C@@H]2CC[C@]2(C)[C@@H](c3ccoc3)CC[C@]12O (stereo partly drawn) [Comp. I-ap, 3β-(2,3-Bis(1-pyrrolidinyl)propoxy)-17β-(3-furyl)-5β-androstan-14β-ol] |  |  | 1580 | 398 |  |  |
| C[C@]12CC[C@H](OCCNCCN3CCCC3)C[C@H]1CC[C@@H]1[C@@H]2CC[C@]2(C)[C@@H](c3ccoc3)CC[C@]12O [Comp. I-ag, 3β-(2-(2-(1-Pyrrolidinyl)ethylamino)ethoxy)-17β-(3-furyl)-5β-androstan-14β-ol] | 162 ± 5.0 | 377 ± 9.0 | 1580 | 158 |  |  |
